Experimental data published in ChEMBL document CHEMBL1201862, “PubChem BioAssay data set” (2004).
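How tested: cells in 96-well plates exposed to compound for 48 hours at five concentrations. GI50 marks 50% less growth.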 The source made the active and inactive calls. Rule as the data show it: active = GI50 up to about 1.1 µM and inactive = higher.

Experiments:
Test in all cases: NCI tumour cell line growth inhibition, 48 h
[1] = system: MDA-MB-231
[2] = system: ACHN
[3] = system: MOLT-4
[4] = system: Hs-578T
[5] = system: T47D
[6] = system: KM12
[7] = system: TK-10
[8] = system: DU-145
[9] = system: RXF 393
[10] = system: A498
[11] = system: COLO 205
[12] = system: U-251
[13] = system: SK-MEL-5
[14] = system: LOX IMVI
[15] = system: HCT-15
[16] = system: SNB-19
[17] = system: HOP-92
[18] = system: MCF7
[19] = system: SK-MEL-28
[20] = system: SNB-75

SMILES | GI50 [1] | GI50 [2] | GI50 [3] | GI50 [4] | GI50 [5] | GI50 [6] | GI50 [7] | GI50 [8] | GI50 [9] | GI50 [10] | GI50 [11] | GI50 [12] | GI50 [13] | GI50 [14] | GI50 [15] | GI50 [16] | GI50 [17] | GI50 [18] | GI50 [19] | GI50 [20]
Cc1nnc2sc(-c3ccc(-c4ccccc4Cl)o3)nn12 | 53.2 µM (inactive) | 48.4 µM (inactive) | 19 µM (inactive) | 55.7 µM (inactive) | 20.9 µM (inactive) | 35.2 µM (inactive) | 45.1 µM (inactive) | 36.6 µM (inactive) | 33.8 µM (inactive) | 37.2 µM (inactive) | 38.5 µM (inactive) | 32.5 µM (inactive) | 20.9 µM (inactive) | 20.9 µM (inactive) | 24.9 µM | 40.5 µM (inactive) | 40.2 µM (inactive) | 29.1 µM (inactive) | – | –
C=CCCC1(CC(Sc2ccccc2)P(=O)(c2ccccc2)c2ccccc2)OCCO1 (centres undefined) | > 10 µM (inactive) | > 10 µM (inactive) | > 10 µM (inactive) | > 10 µM (inactive) | > 10 µM (inactive) | > 10 µM (inactive) | > 10 µM (inactive) | > 10 µM (inactive) | > 10 µM (inactive) | > 10 µM (inactive) | > 10 µM (inactive) | > 10 µM (inactive) | > 10 µM (inactive) | > 10 µM (inactive) | > 10 µM | > 10 µM (inactive) | – | > 10 µM (inactive) | > 10 µM (inactive) | –
CC(=O)/C(=C\Nc1c(C)n(C)n(C)c1=O)C(=O)c1ccccc1 | > 50 µM (inactive) | > 50 µM (inactive) | > 50 µM (inactive) | > 50 µM (inactive) | > 50 µM (inactive) | – | > 50 µM (inactive) | > 50 µM (inactive) | > 50 µM (inactive) | > 50 µM (inactive) | > 50 µM (inactive) | > 50 µM (inactive) | > 50 µM (inactive) | > 50 µM (inactive) | > 50 µM | > 50 µM (inactive) | 26.5 µM (inactive) | > 50 µM (inactive) | > 50 µM (inactive) | –
CCn1c(=O)c2c3cc(O)ccc3oc2c2ccc(O)cc21 | 25.2 µM (inactive) | 21.3 µM (inactive) | 16.1 µM (inactive) | 5.46 µM (inactive) | 12.6 µM (inactive) | 31.8 µM (inactive) | 24.8 µM (inactive) | 29.4 µM (inactive) | 30.1 µM (inactive) | 18.9 µM (inactive) | 17.5 µM (inactive) | 22.9 µM (inactive) | 17 µM (inactive) | – | 31 µM | 21.9 µM (inactive) | 26.2 µM (inactive) | 28.6 µM (inactive) | 35.8 µM (inactive) | 22.9 µM (inactive)
c1ccc([P+](Cc2ccccc2C[P+](c2ccccc2)(c2ccccc2)c2ccccc2)(c2ccccc2)c2ccccc2)cc1 | > 100 µM (inactive) | > 100 µM (inactive) | – | > 100 µM (inactive) | > 100 µM (inactive) | 49.9 µM (inactive) | > 100 µM (inactive) | > 100 µM (inactive) | > 100 µM (inactive) | > 100 µM (inactive) | > 100 µM (inactive) | 63.5 µM (inactive) | > 100 µM (inactive) | 37.6 µM (inactive) | > 100 µM | 50.6 µM (inactive) | – | > 100 µM (inactive) | > 100 µM (inactive) | > 100 µM (inactive)
C=CC1CN(C(=O)OCC)N(C(=O)OCC)C1CCc1ccccc1 (centres undefined) | > 100 µM (inactive) | > 100 µM (inactive) | 31.2 µM (inactive) | > 100 µM (inactive) | 33.3 µM (inactive) | 71.6 µM (inactive) | > 100 µM (inactive) | > 100 µM (inactive) | – | – | 71.6 µM (inactive) | > 100 µM (inactive) | 64.1 µM (inactive) | > 100 µM (inactive) | 65.5 µM | > 100 µM (inactive) | 53.5 µM (inactive) | 42.2 µM (inactive) | > 100 µM (inactive) | 68.9 µM (inactive)
O=C1NC(N2CCOCC2)=N/C1=C\c1cccs1 | > 100 µM (inactive) | > 100 µM (inactive) | > 100 µM (inactive) | > 100 µM (inactive) | > 100 µM (inactive) | 36.2 µM (inactive) | > 100 µM (inactive) | > 100 µM (inactive) | > 100 µM (inactive) | – | > 100 µM (inactive) | > 100 µM (inactive) | > 100 µM (inactive) | > 100 µM (inactive) | > 100 µM | > 100 µM (inactive) | > 100 µM (inactive) | > 100 µM (inactive) | > 100 µM (inactive) | 30.2 µM (inactive)
COC(=O)c1c(O)ccc2c1c1c(n2Cc2ccccc2)C(=O)c2ccccc2C1=O | 16.2 µM (inactive) | 12.2 µM (inactive) | 4.88 µM (inactive) | 18.5 µM (inactive) | 12.9 µM (inactive) | 12.9 µM (inactive) | 17.1 µM (inactive) | 18.3 µM (inactive) | 14.1 µM (inactive) | – | 1.8 µM (inactive) | 13.9 µM (inactive) | 16.1 µM (inactive) | 15.6 µM (inactive) | 12.6 µM | 14.9 µM (inactive) | 13 µM (inactive) | 12.1 µM (inactive) | 17.5 µM (inactive) | 15.6 µM (inactive)
O=C(O)c1cc2c(cc1S(=O)(=O)O)C1C(C3C2C2(Cl)C(Cl)=C(Cl)C3(Cl)C2(Cl)Cl)C2(Cl)C(Cl)=C(Cl)C1(Cl)C2(Cl)Cl (centres undefined) | 24.4 µM (inactive) | > 100 µM (inactive) | 27.6 µM (inactive) | 45.2 µM (inactive) | 33.2 µM (inactive) | 51.4 µM (inactive) | > 100 µM (inactive) | 48.1 µM (inactive) | 29.2 µM (inactive) | 97.1 µM (inactive) | 44.1 µM (inactive) | 38.3 µM (inactive) | 34.7 µM (inactive) | – | 45 µM | 47.4 µM (inactive) | 29.2 µM (inactive) | 34.8 µM (inactive) | 37.1 µM (inactive) | 47.6 µM (inactive)
CCOC(=O)C1(NC(=O)OC(C)(C)C)CCc2[nH]oc(=O)c2C1 (centres undefined) | > 100 µM (inactive) | > 100 µM (inactive) | > 100 µM (inactive) | > 100 µM (inactive) | > 100 µM (inactive) | 9.95 µM (inactive) | > 100 µM (inactive) | > 100 µM (inactive) | – | > 100 µM (inactive) | > 100 µM (inactive) | > 100 µM (inactive) | > 100 µM (inactive) | > 100 µM (inactive) | > 100 µM | > 100 µM (inactive) | > 100 µM (inactive) | > 100 µM (inactive) | > 100 µM (inactive) | > 100 µM (inactive)
CC(C)(C)C1CCC2c3c([nH]c4ccccc34)C3C(=O)N(c4ccc5c(c4)C(=O)c4ccccc4C5=O)C(=O)C3C2C1 (centres undefined) | > 100 µM (inactive) | > 100 µM (inactive) | > 100 µM (inactive) | > 100 µM (inactive) | > 100 µM (inactive) | > 100 µM (inactive) | > 100 µM (inactive) | > 100 µM (inactive) | > 100 µM (inactive) | > 100 µM (inactive) | > 100 µM (inactive) | > 100 µM (inactive) | > 100 µM (inactive) | > 100 µM (inactive) | > 100 µM | > 100 µM (inactive) | – | > 100 µM (inactive) | > 100 µM (inactive) | –
C/C(=N\NC(=S)NC1CCCC1)c1ccccn1 | 1.08 µM (active) | < 0.01 µM (active) | < 0.01 µM (active) | 36.6 µM (inactive) | < 0.01 µM (active) | 0.0708 µM (active) | 0.202 µM (active) | 0.9 µM (active) | – | 0.65 µM (active) | < 0.01 µM (active) | 0.0753 µM (active) | 0.205 µM (active) | < 0.01 µM (active) | < 0.01 µM | 1.05 µM (active) | 0.0718 µM (active) | < 0.01 µM (active) | 3.28 µM (inactive) | 2.25 µM (inactive)
CCCCCCCCCCCCCCCCCCOC(COP(=O)(O)OCC1OC(n2cc(F)c(=O)[nH]c2=O)CC1O)COP(=O)(O)OCC1OC(n2ccc(N)nc2=O)C(O)C1O (centres undefined) | > 100 µM (inactive) | 0.474 µM (active) | 1.72 µM (inactive) | > 100 µM (inactive) | > 100 µM (inactive) | 59.2 µM (inactive) | 33.2 µM (inactive) | 3.33 µM (inactive) | 16.4 µM (inactive) | 0.485 µM (active) | 20.8 µM (inactive) | 7.13 µM (inactive) | > 73.5 µM (inactive) | 1.14 µM (inactive) | 31.4 µM | 6.46 µM (inactive) | – | 2.37 µM (inactive) | 64.6 µM (inactive) | 22.6 µM (inactive)
CSc1cnn(CCC#N)c(=O)n1 | > 100 µM (inactive) | > 100 µM (inactive) | 27.1 µM (inactive) | > 100 µM (inactive) | > 100 µM (inactive) | > 100 µM (inactive) | > 100 µM (inactive) | > 100 µM (inactive) | > 100 µM (inactive) | 74 µM (inactive) | > 100 µM (inactive) | > 100 µM (inactive) | 26.4 µM (inactive) | 93.5 µM (inactive) | > 10 µM | > 100 µM (inactive) | – | 39.4 µM (inactive) | > 100 µM (inactive) | 84.9 µM (inactive)
CC(=O)OC(Cc1cc(C=C(C(F)(F)F)C(F)(F)F)cc(C)n1)(C(F)(F)F)C(F)(F)F | 1.5 µM (inactive) | 1.39 µM (inactive) | < 0.01 µM (active) | 1.95 µM (inactive) | 1.9 µM (inactive) | 1.55 µM (inactive) | 2.8 µM (inactive) | 2.48 µM (inactive) | 0.855 µM (active) | 1.75 µM (inactive) | 0.759 µM (active) | 1.55 µM (inactive) | 1.49 µM (inactive) | 1.14 µM (inactive) | 0.975 µM | 1.88 µM (inactive) | – | 0.14 µM (active) | 1.38 µM (inactive) | 2.03 µM (inactive)
